According to patent US20070026090A1, “Treatment and prevention of inflammatory disease and mitochondrial dysfunction with high dose selenium” (priority 2003, published 2007):

Key:
[1] = system: hapten (TNBS)-induced colitis
Method: Animals: Male Sprague-Dawley rats (approximately 150 g bw) received food and water ad libitum. They were kept in plastic cages with wire tops in a light-controlled room.
High-dose dietary selenium supplementation: Rats received food and (unsupplemented) water ad libitum (control group). Normal selenium (control) diet included 0.2 mg selenium/kg chow. […] The high-selenium diet provided approximately 2-3 μ/gm day of selenium per animal, which is considered an acceptable excess supplementation diet for this element (Davis et al., 1998; Shilo et al., 2003).
Induction of colitis and sample collection: Colitis was induced by administration of 0.5 ml of 2,4,6-trinitrobenzene sulphonic acid (TNBS, 100 mg/ml dissolved in 50% ethanol)through the anal canal, at a distance of 8 cm into the colon, just proximal to the splenic flexure. 24 hours after induction animals were sacrificed and the colon was removed for pathology, histocytological, biochemical or immunohistocytological analysis (Reifen et al., 2000).

NF-κB = NF-κB binding in vitro, selenite added to nuclear extract (EMSA); design: species or system murine; conditions: 5 μM added to nuclear extract 5 minutes before (FIG. 12B)
Method: Nuclear extracts: Nuclear Extracts were prepared using a slight modification of the method of Dignam et al (23). Treated cells were washed with cold PBS, scraped and centrifuged. Hypotonic buffer (1 ml, 20 mM HEPES pH 7.0, 10 mM KCl, 1 mM mGCl2, 0.5 mM DTT, 0.1% Triton X-100, 20% glycerol, 2 mM PMSP, 1 mg/ml Aprotonin and Leupeptin) was added to the cell pellets, the pellets were disrupted by pipetting, and centrifuged 3000 RPM for 5 min. The pellets were re-suspended in 100 μl cold extraction buffer (20 mM HEPES pH 7.0, 10 mM KCl, 1 mM mGCl2, 0.5 mM DTT, 0.1% Triton X-100, 20% glycerol, 2 mM PMSF, 1 mg/ml Aprotonin and Leupeptin, 420 mM NaCl). The samples were rotated for 20 min at 4° C., centrifuged 15,000 RPM for 10 min, and supernatants collected. Protein content was measured using Bradford reagent. Samples were stored frozen at minus 70° C.
Electromobility shift assay (EMSA)—Gel shift assays were performed according to the gel shift assay protocol from Promega Corp. (San Luis Obispo, Calif.). […] For each reaction, 2 μg of nuclear extract were incubated with 2 μl of 5× binding buffer for 5 min., 1 μl of the ^32P-labeled oligonucleotide was added at room temperature for 20 min., the samples were prepared by adding 1 μl of dye free loading buffer, and separated using 6% non-denaturing acrylamide gel electrophoresis. […]

UCP2 = UCP2 transcription and expression (RTPCR, Western blot); format: cell-based, murine
Method: Cell culture: Murine J774.2 macrophages (kindly provided by Prof. Dov Zipori from the Weizmann Institute of Science) were grown in RPMI medium supplemented with 10% (w/v) fetal calf serum, penicillin (100 U/ml), streptomycin (100 μg/ml) and 1× glutamine at 37° C. in a humidified atmosphere consisting of 95% air and 5% CO2. Experiments were performed on cells at 60% confluence.
(§1) Western blots (Sp1, MnSOD, UCP2): Cells were grown in six-well tissue culture plates, treated with selenium for 72 h and activated with LPS and IFN-γ for 24 h. The wells were washed with PBS, scraped and centrifuged
(§2) (5 min. 2000 RPM), and lysed by addition of boiling hot lysis buffer (1% SDS, 1 mM sodium ortho-vanadate, 10 mM Tris pH 7.4) to the pellets. Protein content was measured (BIO RAD protein assay kit) and equalized. Sample buffer (containg SDS) was added and the samples were boiled. The samples were subjected to SDS-PAGE followed by western blot analysis. Separated proteins were transferred electrophoretically from the gel to a nitrocellulose membrane (Amersham International plc, Buckinghamshire, ENGLAND). The membrane was blocked in TBS (0.15 M NaCl/10 mM Tris/HCl, pH7.4) containing 5% (v/v) skimmed milk (Blotto), then incubated over night with primary antibodies at RT (diluted 1/2000 in blotto). After being washed six times in TBST [TBS containing 0.05% (v/v) Tween 20], the membrane was incubated for 2 h at room temperature with secondary antibody (diluted 1/5000 in blotto). Immunoreactive bands were detected with ECL western blotting detection reagents (Amersham Pharmacia Biotech, Buckingammshire England) and developed on film (Fuji super RX, Dusseldorf, Germany). Primary antibodies for Sp1 and MnSOD were from BD Transduction Laboratories (Becton Dickenson and Co., San Jose, Calif. USA) and for UCP2 from Alpha Diagnostics LTD (Warszaw, Poland). Secondary antibodies were from Jackson ImmunoResearch (Jackson Labs, Bar Harbor, Maine, USA).
Reverse transcriptase-PCR (RTPCR): Total RNA was prepared and isolated by the Tri-Reagent method according to the manufacturer's protocol (Sigma, St. Louis Mo., USA). Total RNA (1 μg) was converted into cDNA using Reverse-iT first strand synthesis kit (Abgene, UK). Amplification of MnSOD and UCP2 sequences was performed by incubating 10 ng equivalents of DNA with the following oligonucleotide primers:
Left (sense), 5′-[…]-3′ (SEQ ID NO:7) corresponding to nucleotides 372 to 392 of mouse mRNA (GenBank Accession No. NM 011671).
Right (antisense) 5′[…]-3′ (SEQ ID NO: 8) corresponding to nucleotides 826 to 846 of mouse mRNA (GenBank Accession No. NM 011671). The expected PCR product was 474 bp. Actual PCR product was approximately 474 bp, measured on 1.25% agarose gel in TAE containing ethidium bromide.
PCR was performed with 28 cycles (25 cycles for GAPDH) of 30 seconds at 96° C., 30 seconds at 58° C. and 1 min at 72° C. RTPCR products were analyzed on 1.3% (w/v) agarose gels.

mtTFA = mtTFA mRNA in colon tissue (RT-PCR); format: in vivo, rat
Method: Mitochondrial (mt) TFA, NRF1, and cytochrome c mRNA analysis: Total RNA was extracted from 50 to 100 mg tissue at a time using 1 ml of Tri Reagent® (Sigma-Aldrich Corp., St. Louis, Mo.) according to manufacturer's instructions. First strand cDNA synthesis was carried out using reverse-iTTM First Strand Synthesis from Advanced Biotechnologies (ABgene®, ABgene, Epsom, U.K.) was used according to the manufacturer's instructions. Target sequences were amplified in the PCR reaction as follows: each tube contained 37 ng of cDNA from cytochrome c, GAPDH, or 18S, 3 μl of specific primers, 12.5 μl of ready Mix and 6.5 μl water DEPC (for a total 25 μl in each tube).
The PCR for cytochrome c, NRF1 and mtTFA was run at 95° C. for 5 min, 94° C. for 30 sec, 56° C. for 2 min, 72° C. for 1 min, back to stage 2 for 22, 26, 24 cycles, respectively, then 72° C. for 10 min, and 4° C. The products of the PCR were separated on a 1% agarose gel in TAE buffer with ethidium bromide. The electrophoresis took place in a BioRad device in 1×TAE buffer at 95 V for about 50 min (maximum mA). The size of the cDNA was determined by a 100-bp marker.
Rat mtTFA: (Antisense) 5′-[…]-3′ (SEQ ID No. 15) corresponding to nucleotides 756 to 777 of rat mtMTFA (GenBank Accession No. AJ312746).
(Sense): 5′-[…]-3′ (SEQ ID No. 16). The expected PCR product was 417 bp, the actual 417 bp.

[2] = system: myeloperoxidase (MPO) activity; experiment: Tissue inflammation: myeloperoxidase activity in colon tissue; format: in vivo, rat; conditions: supplemented rats, 24 h after TNBS; unsupplemented rats greater than 30-fold
Method: Tissue inflammation-Myeloperoxidase activity: Colonic tissue samples (approximately 100-120 mg) were collected 4 cm proximal to the anus. Each tissue sample was homogenized in a solution containing 0.5% hexa-decyl-trimethyl-ammonium bromide (HTAB) (Sigma-Aldrich Corp, St. Louis, Mo.) buffer (0.5% HTAB in 50 mM phosphate buffer, pH 6.0). Tissue samples were minced in a test tube containing 1 ml of HTAB buffer on ice and homogenized with a Polytron tissue homogenizer (Brinkmann Instruments, Inc, Westbury N.Y., USA). The pooled homogenates and washes were sonicated in water for 20 seconds. After three cycles of freeze-thawing, the sonicated samples were centrifuged in cold for 15 min. at 40,000×g. Myeloperoxidase activity (MPO) was assayed in the supernatant as described by Krawisz (Krawisz et al., 1984) after addition of O-dianizidine-HCl (Sigma-Aldrich Corp, St Louis, Mo.) and 0.15% (v/v) H2O2 as a substrate for the MPO. The rate of change in absorbance was measured spectrophotometrically at 460 nm, and is expressed as the amount of enzyme necessary to produce a change in absorbance of 1.0 unit per minute (1 unit) per gram wet weight tissue.

Sp1 = Sp1 protein (Western blot); format: cell-based, murine; conditions: FIG. 13B
Method: as §1
as §2, with “Primary antibodies for Sp1 and MnSOD were from BD Transduction Laboratories (Becton Dickenson and Co., San Jose, Calif. USA) and for UCP2 from Alpha Diagnostics LTD (Warszaw, Poland). Secondary antibodies were from Jackson ImmunoResearch (Jackson Labs, Bar Harbor, Maine, USA).” left out

## [Se] [selenium]
[1]; 24 h after TNBS, 3 weeks high-dose supplementation, unsupplemented rat more than 80%
  necrosis, share of the colon (gross pathology): less than 15%
[1]; rat, in vivo
  effects on colon tissue of healthy, uninduced rats (gross pathology): no apparent effects
NF-κB
  NF-κB binding in vitro: directly inhibited
UCP2; 24 or 72 hours, concentration dependent, to a lesser extent than MnSOD
  UCP2 transcripts and protein: reduced the abundance
UCP2; exposure (72 hours) prior to activation, concentration dependent (FIG. 11)
  UCP2 expression, activated macrophages: decreased
mtTFA; 24 h after TNBS, supplemented (FIG. 17 lane 4), unsupplemented nearly absolute loss
  mtTFA levels in colon tissue, colitis-induced rats: surpass that of healthy control rats
mtTFA; healthy supplemented rats (FIG. 17 lane 2)
  mtTFA levels in colon tissue, healthy rats: significantly enhances
[2]
  myeloperoxidase elevation following hapten administration, compared to uninduced controls: approximately 5 fold
Sp1
  Sp-1 gene expression / synthesis (Western blot): no change
